# Tests used:
# [1] = tested on: PMWK (ITKLO) melanoma cell line; assay: proliferation assay (cell counts); assay type: cell-based, Human; conditions: inhibitor as high as 150 nM
# Description: (§1) FIG. 4A-4E. Effects of ITK knockdown on proliferation and motility of melanoma cells. FIG. 4A) Western of lysates of VMM 39 containing each of the four shRNA constructs using rabbit monoclonal anti ITK (Y401). FIG. 4B) The four shRNA lentiviral constructs were used to transduce three melanoma cell lines, PMWK (ITKLO), VMM 39 (ITKHI), and RPMI 8322 (ITKHI). 50,000 cells were placed into each well of a 6 well plate, which was then counted 3, 5, and 6, or 7 days after plating to assess the proliferation rates of the different cell lines. FIG. 4C) Single Cell Motility assays were performed on three different melanoma cell lines, PMWK, VMM 39, and RPMI 8322. Each melanoma cell line was transduced with the four shRNA lentiviral constructs producing a total of 12 cell lines. 10,000 cells were plated on fibronectin coated glass bottom dishes. Pictures were taken once every 40 minutes for 16 hours. FIG. 4D) Cell cycle analysis of PMWK, VMM 39, and RPMI 8322 cells that have been transduced with various shRNAs. Cells were harvested after 3 hours of incubation with 5-ethynyl-2′-deoxyuridine (EdU). EdU incorporation and DNA content with FxCycle Violet were analyzed using flow cytometry. Illustrated in this panel are the percentages of cells in G0/G1 (low DNA and EdU content), S (high EdU and low-to-medium DNA content), and G2/M (Low EdU and high DNA content). FIG. 4E) Single-cell motility analysis of PMWK, VMM 39, and RPMI 8322 that have been transduced with various shRNAs. At least 50 cells were tracked for each cell line and the average motility rate was determined. […]
# (§2) FIG. 5A-5C. […] Cells were trypsinized and counted using the Invitrogen Countess. […] The cells were counted with the Invitrogen Countess at 3, 5, and 6 or 7 days after plating to assess the proliferation rates of the different cell lines in the presence of BI 10N. […] Following 3 days of BI 10N treatment, the cells were incubated with EdU for 3 hours and were subsequently assessed for 5-ethynyl-2′-deoxyuridine (EdU) incorporation rate and DNA content with FxCycle Violet. […]
# [2] = tested on: VMM 39 (ITKHI) melanoma cell line; assay: proliferation assay (cell counts); assay type: cell-based, Human; conditions: 50 nM
# Description: as §1, §2
# [3] = tested on: RPMI 8322 (ITKHI) melanoma cell line; assay: proliferation assay (cell counts); assay type: cell-based, Human; conditions: 50 nM
# Description: as §1, §2
# 56 protein kinases = assay: cell-free kinase selectivity panel; assay type: biochemical; conditions: versus 51 of the 56 protein kinases tested
# Description: To assess the effect of pharmacologic inhibition of ITK activity in melanoma preclinical models, we used BI 10N, which has been previously shown to inhibit ITK's phosphoryl-transfer activities (Kashem et al., 2007; Riether et al., 2009). We investigated the potency and selectivity of BI 10N against 56 kinases using a cell-free assay (Table 8A).
# [4] = tested on: PD-L expression in the melanoma cells; assay: PD-L expression in melanoma cells; assay type: cell-based
# Description: In addition, we report a correlation between PD-L and ITK protein expression and also found a significant correlation between activated Akt and PD-L protein levels (data not shown). […] These observations are consistent with PI3K regulating PD-L expression, Akt or Erk activation and ITK protein levels (Davies, 2012; Jiang and Liu 2008 Biochim Biophys Acta 1784, 150-158; Parsa et al., 2007 Nat Med 13, 84-88)
# [5] = tested on: primary melanoma in the PTEN/BRAF GEMM; assay: PTEN/BRAF GEMM primary melanoma model; assay type: in vivo, mice
# Description: FIG. 7A-7B Effects of BI 10N inhibitor on growth of primary melanoma in the PTEN/BRAF GEMM. A primary melanoma tumor from the PTEN/BRAF mouse GEMM untreated with inhibitors stained with acid fast red for ITK using ITK antibody (Abeam cat#ab32113) (data not shown). A PTEN/BRAF mouse model was used for these in vivo studies. The mice were painted with 4HT (4-hydroxy-tamoxifen) at the base of their tails and within about 4 weeks, 4 mm×4 mm melanomas were typically present in each mouse. The animals were then divided into treatment or no treatment groups. FIG. 7A) Animals were treated as described in panel B, then placed on BI 10N BI 10N at 15 MPK or not treated. Mice were followed for 7 weeks and their tumors were measured once a week to assess tumor volume as described in the Materials and Methods. FIG. 7B) Effect of BI 10N on tumor growth (mean and standard error of mean) in the PTEN/BRAF GEMM. […] The effects of AZD6244 and PLX4032 on tumor growth are also shown. Samples sizes are indicated in parentheses.
# All animal studies were approved by UNC-CH Institute for Animal Care and Use Committee prior to study start. PTEN/BRAF mice were bred in house, and tumors were induced with 1 ul of 20 mM Tamoxafen at 4 weeks near the base of the tail as previously described (Dankort et al., 2009 Nat Genet 41(5): 544-52). […]
smiles,measurement,setting,value
CC(C)C(C)CNCc1ccc2c(c1)[nH]/c(=N\C(=O)c1ccc(C3=CN=NC3)s1)n2CC(C)(C)O (stereo not shown) [BI 10N],effect on doubling time,[1],did not increase their doubling time
same,increase in doubling time,[2],about 50%
same,increase in doubling time,[3],about 50%
same,selectivity for ITK over other protein kinases,56 protein kinases,at least 1000 fold
same,expression of PD-L,[4],did not change
same,tumor growth compared with AZD6244 and PLX4032,"[5]; PTEN/BRAF GEMM, FIG. 7B",performs better in vivo than MEK inhibitor AZD6244 (selumentinib) and V600E BRAF inhibitor PLX4032 (vemurafenib)
same,progression of tumors,"[5]; PTEN/BRAF mice, 15 mg per kg, compared to the no treatment group",profoundly retarded the progression of tumors

# Source: patent publication US9649313B2, “Use of ITK inhibitors for the treatment of cancer” (The University of North Carolina at Chapel Hill, priority 2012, dated 2017)
